Laboratory results as given in US20240415785A1, “USE OF D-ARABITOL IN LIPID-LOWERING AND HEPATOPROTECTION” (NANJING UNIVERSITY OF CHINESE MEDICINE, priority 2022, published 2024).

Experiments:
Format in all cases: in vivo
[1] = test system: C57 BL/6 J male mice with the high-fat diet; test: Body weight ratio of mice with the high-fat diet; settings: high-fat feed, 12 weeks, compared with model group
Procedure: (§1) D-arabitol, L-arabitol, L-arabinose, D-arabinose, and D-xylitol each were prepared with sterile distilled water into a 50 g/L or 20 g/L solution.
(§2) A total of 64 SPF-grade 8-week-old C57 BL/6 J male mice were adaptively raised for 3 d with a normal diet in a barrier facility having an independently-ventilated cage (IVC), tested for an initial body weight, and randomly divided into 8 groups. On day 4, the mice in the 8 groups were administered with a normal feed or a high-fat feed, and drinking water for mice in an administration group was replaced with drug-containing water. Each mouse had free access to food and drinking water, and a body weight was recorded weekly. The grouping, diets, and administration were as follows: • (1) normal diet group (Chow): normal feed+sterile distilled water; • (2) high-fat diet group (HFD): high-fat feed+sterile distilled water; • (3) 50 g/L L-arabitol group (HFD+50 g/L L-Arabitol): high-fat feed+50 g/L L-arabitol; • (4) 20 g/L D-arabitol group (HFD+20 g/L D-Arabitol): high-fat feed+20 g/L D-arabitol; • (5) 50 g/L D-arabitol group (HFD+50 g/L D-Arabitol): high-fat feed+50 g/L D-arabitol; • (6) 50 g/L L-arabinose group (HFD+50 g/L L-Arabinose): high-fat feed+50 g/L L-arabinose; • (7) 50 g/L D-arabinose group (HFD+50 g/L D-Arabinose): high-fat feed+50 g/L D-arabinose; and • (8) 50 g/L xylitol group (HFD+50 g/L Xylitol): high-fat feed+50 g/L xylitol.
Mouse body weight ratio: a body weight at the nth week (g)×100%/an initial body weight (g). Data was subjected to statistical tests with Graphpad Prism v9.0. Two-way ANOVA and Tukey's multiple comparison tests were adopted for body weight data, and one-way ANOVA and Dunnett's multiple comparison tests were adopted for other data.

[2] = test system: C57 BL/6 J male mice with the high-fat diet; test: Liver histopathology (H&E staining) of mice with the high-fat diet; settings: high-fat feed
Procedure: as §1, §2
(§3) At the end of the experiment, each mouse was anesthetized by intraperitoneal injection of sodium pentobarbital with a concentration of 5 mg/mL, the injection volume was 0.1 mL/10 g, and the injection dose was 50 mg/kg, and then blood was collected from the orbit. The mouse was sacrificed through cervical dislocation, and a liver was collected, rinsed with normal saline, and dried with a filter paper. A liver lobe was taken and fixed in paraformaldehyde. The remaining liver was quickly frozen with liquid nitrogen, and stored at −80° C. The blood was allowed to stand for 30 min and then centrifuged at 3,500 rpm for 10 min to obtain a supernatant, and the supernatant was collected and stored at −80° C.
A liver tissue that had been fixed with 4% paraformaldehyde was taken and subjected to gradient dehydration in the dehydrator as follows: in 75% ethanol for 4 h, in 85% ethanol for 2 h, in 90% ethanol for 2 h, in 95% ethanol for 1 h, in absolute ethanol I for 30 min, and in absolute ethanol II for 30 min. A tissue obtained after complete dehydration was permeabilized 1 time with a mixed solution of absolute ethanol and xylene mixed in equal volumes, and then permeabilized 2 times with pure xylene for about 5 min to 10 min each time. […]

[3] = test system: patient with a high blood or liver lipid level; test: Lipid-lowering method in patient or individual with a high blood or liver lipid level
Text: A lipid-lowering method was provided, including: a drug was orally administered to or injected into a patient with a high blood or liver lipid level, where an active ingredient of the drug was D-arabitol.
A lipid-lowering method was provided, including: an individual with a high blood or liver lipid level was allowed to take a health care product or a food, where the health care product or the food included D-arabitol as an active ingredient.

[4] = test system: C57 BL/6 J male mice with the high-fat diet; test: Blood lipid levels (total TG, LDL-c, HDL-c) in serum of mice with the high-fat diet; settings: high-fat feed, compared with high-fat diet group
Procedure: as §1, §2, §3
A serum sample was taken, thawed at 4° C., and tested for serum HDL-c, LDL-c, total TG, ALT, and aspartate aminotransferase (AST) according to instructions of kits.

[5] = test system: C57 BL/6 J male mice with the high-fat diet; test: Total cholesterol (TC) level in liver of mice with the high-fat diet; settings: high-fat feed 12 weeks, compared with high-fat diet group
Procedure: as §1
as §2, with “xylitol. […]” for “xylitol.”

[6] = test system: patient with a liver damage caused by a high blood or liver lipid level; test: Hepatoprotection method in patient or individual with a liver damage caused by a high blood or liver lipid level
Text: A hepatoprotection method was provided, including: a drug was orally administered to or injected into a patient with a liver damage caused by a high blood or liver lipid level, where an active ingredient of the drug was D-arabitol.
A hepatoprotection method was provided, including: an individual with a liver damage caused by a high blood or liver lipid level was allowed to take a health care product or a food, where the health care product or the food included D-arabitol as an active ingredient.

[7] = test system: C57 BL/6 J male mice with the high-fat diet; test: Serum ALT level of mice with the high-fat diet; settings: high-fat feed 12 weeks, compared with high-fat diet group
Procedure: as §1
as §2, with “xylitol. […]” for “xylitol.”

In the case of OC[C@@H](O)[C@H](O)[C@@H](O)CO [xylitol, Xylitol], the body weight ratio ([1]; 50 g/L in drinking water) is reported as “did not have an effect of making a body weight ratio of mice significantly decrease”.
With OC[C@H](O)C(O)[C@@H](O)CO [L-arabitol, reference compound] the “liver cell structures, H&E staining (liver damage)” value ([2]; 50 g/L in drinking water) was “liver cell structures disappeared”, the “white vacuoles (lipid droplets) in the liver tissue, H&E staining” value (shortened to “white vacuoles (lipid droplets)”) ([2]; 50 g/L in drinking water) was “no significant white vacuoles” and the body weight ratio ([1]; 50 g/L in drinking water) was “did not have an effect of making a body weight ratio of mice significantly decrease”.
For O=C[C@@H](O)[C@H](O)[C@H](O)CO [D-arabinose], the body weight ratio ([1]; 50 g/L in drinking water) was “did not have an effect of making a body weight ratio of mice significantly decrease”.
With O=C[C@H](O)[C@@H](O)[C@@H](O)CO [L-arabinose] the body weight ratio ([1]; 50 g/L in drinking water) was “did not have an effect of making a body weight ratio of mice significantly decrease”.
For OC[C@@H](O)C(O)[C@H](O)CO [D-arabitol], the “blood or liver lipid level in the patient” value ([3]; drug orally administered or injected, patient with a high blood or liver lipid level (Example 2)) was “decreased effectively”, the “blood or liver lipid level in the individual” value ([3]; health care product or food taken by individual with a high blood or liver lipid level (Example 4)) was “decreased effectively” and the “HDL-c concentration in serum” value ([4]; 20 g/L in drinking water) was “significantly reduce”. The “LDL-c concentration in serum” value ([4]; 20 g/L in drinking water) was “significantly reduce”, the “HDL-c concentration in serum” value ([4]; 50 g/L in drinking water) was “significantly reduce” and the “LDL-c concentration in serum” value ([4]; 50 g/L in drinking water) was “significantly reduce”. For the same molecule, the “total TG in serum” value ([4]; 50 g/L in drinking water) was “decreased significantly”, the “white vacuoles (lipid droplets)” value ([2]; 20 g/L in drinking water) was “no obvious white vacuoles” and the “white vacuoles (lipid droplets)” value ([2]; 50 g/L in drinking water) was “no obvious white vacuoles”. The body weight ratio ([1]; 20 g/L in drinking water) was “start to significantly decrease from week 8”, the body weight ratio ([1]; 50 g/L in drinking water) was “start to significantly decrease from week 4” and the “accumulation of TC in the liver” value ([5]; 20 g/L in drinking water) was “significantly reduce”. The “accumulation of TC in the liver” value ([5]; 50 g/L in drinking water) was “significantly reduce”, the “liver function in the patient” value ([6]; drug orally administered or injected, patient with a liver damage caused by a high blood or liver lipid level (Example 3)) was “improved effectively” and the “liver function in the individual” value ([6]; health care product or food taken by individual with a liver damage caused by a high blood or liver lipid level (Example 5)) was “improved effectively”. The “serum ALT concentration” value ([7]; 20 g/L in drinking water) was “significantly reduce” and the “serum ALT concentration” value ([7]; 50 g/L in drinking water) was “significantly reduce”.
